This test has as its target T1, IG-PARP-7 (I631G PARP-7) (Homo sapiens, UniProt Q7Z3E1, I631G).
T1 construct: expressed in transfected cells; host or cells: HEK 293T (lysate)
Briefly: Labeling by orthogonal NAD+ analogs in HEK 293T lysates expressing GFP-IG-PARP-7 (click with biotin-azide, Streptavidin-HRP). The test is classed as biochemical. Particulars: HEK 293 T cell lysates, 100 µM NAD+ analog. The source says:
Identifying the protein targets of PARP-7 is a critical first step toward unraveling its function in cells. In previous work we have developed an engineered enzyme—modified substrate strategy for identifying relevant targets of individual PARP family members ([Carter-O'Connell et al., 2014]; [Carter-O'Connell et al., 2016]; [Carter-O'Connell and Cohen, 2015]; [Carter-O'Connell et al., 2018]). This chemical genetic (CG) method uses engineered PARPs and an orthogonal NAD^+ analogue that contains a clickable handle (e.g. an alkyne) that is located at the N-6 position of the adenine ring (5-Bn-6-a-NAD^+). […] Importantly, 5-Bn-6-a-NAD^+ is not used by wild-type (WT) PARPs and in this way is orthogonal to native NAD^+. […] We therefore sought a new orthogonal NAD^+ analogue that would serve as an efficient substrate for floor position engineered PARP-7, I631G PARP-7 (IG-PARP-7) (Figure 1a).
Figure 1. A chemical genetic strategy for identifying the direct MARylation targets of PARP-7. (a) Schematic of chemical genetic approach for identifying direct targets of PARP-7. (b) Crystal structure of human PARP1 bound to the non-hydrolyzable NAD^+ analog benzamide adenine dinucleotide (BAD). PDB: 6bhv. […] Following copper-catalyzed click chemistry with biotin-azide, proteins were resolved by SDS-PAGE and biotinylated proteins were detected by Western blot detection using Streptavidin-HRP. […]

T1 sequence (Q7Z3E1 whole entry I631G): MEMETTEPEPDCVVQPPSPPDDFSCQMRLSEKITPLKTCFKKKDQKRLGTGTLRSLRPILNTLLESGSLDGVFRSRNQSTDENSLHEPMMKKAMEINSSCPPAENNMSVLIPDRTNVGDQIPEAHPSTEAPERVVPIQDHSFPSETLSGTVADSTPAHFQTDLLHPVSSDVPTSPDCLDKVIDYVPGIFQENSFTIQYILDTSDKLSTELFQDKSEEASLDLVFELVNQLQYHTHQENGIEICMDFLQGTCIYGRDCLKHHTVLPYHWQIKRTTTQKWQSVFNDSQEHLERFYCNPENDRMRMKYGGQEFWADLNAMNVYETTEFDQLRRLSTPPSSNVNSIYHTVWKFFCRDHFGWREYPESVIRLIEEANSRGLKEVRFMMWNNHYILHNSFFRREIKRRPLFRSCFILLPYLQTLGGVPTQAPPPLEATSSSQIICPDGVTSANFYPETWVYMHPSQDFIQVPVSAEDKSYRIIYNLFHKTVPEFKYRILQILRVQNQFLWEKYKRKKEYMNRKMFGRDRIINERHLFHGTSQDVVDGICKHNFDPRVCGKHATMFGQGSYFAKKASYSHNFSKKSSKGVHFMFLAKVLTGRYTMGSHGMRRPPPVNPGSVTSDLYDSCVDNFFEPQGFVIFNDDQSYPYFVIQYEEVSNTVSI

As to `C#Cc1nc(N)c2ncn(C3OC(COP(=O)(O)OP(=O)([O-])OCC4OC([n+]5cc(Cc6ccccc6)cc(C(N)=O)c5)C(O)C4O)C(O)C3O)c2n1` (stereo not shown) [5-Bn-2-e-NAD^+, 5-benzyl-2-ethynyl-NAD^+], the “substrate for floor position engineered PARP-7 (IG-PARP-7)” value is “much better substrate”.
